Measured values published in the supplement of paper PMC10883282.

Key:
Assay in all cases: relative viability vs DMSO control (72 h) (fraction); higher = more viable cells
[1] = test system: SYO-1
Outline: (§1)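 Sarcoma cell lines were plated in 384 wells to reach 80–90% confluence, treated after 24 h with 2.5 µl of serially diluted compound and held 72 h at 37 °C, 5% CO2. Relative viability was taken as percent growth from ATPLite readings, averaged over up to triplicate wells. The values were rescaled so that 1 marks full and 0 marks none.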

[2] = test system: HT1080
Outline: as §1

[3] = test system: KHOS-NP
Outline: as §1

[4] = test system: VA-ES-BJ
Outline: as §1

[5] = test system: SK-LMS-1
Outline: as §1

[6] = test system: A204
Outline: as §1

[7] = test system: HS729
Outline: as §1

[8] = test system: SW684
Outline: as §1

[9] = test system: SW872
Outline: as §1

[10] = test system: SW1353
Outline: as §1

[11] = test system: MES-SA
Outline: as §1

[12] = test system: G401
Outline: as §1

Cc1[nH]c(/C=C2\C(=O)Nc3ccccc32)c(C)c1CCC(=O)O [Orantinib]
Settings	relative viability
[1], 0.00017 µM	1.012
[1], 0.00051 µM	1.01
[1], 0.00152 µM	1.02
[1], 0.00457 µM	1.02
[1], 0.01372 µM	1.01
[1], 0.04115 µM	1.03
[1], 0.1235 µM	0.997
[1], 0.3704 µM	0.979
[1], 1.111 µM	0.973
[1], 3.333 µM	0.945
[1], 10 µM	0.799
[2], 0.00017 µM	1.09
[2], 0.00051 µM	1.1
[2], 0.00152 µM	1.13
[2], 0.00457 µM	1.11
[2], 0.01372 µM	1.08
[2], 0.04115 µM	1.07
[2], 0.1235 µM	1.11
[2], 0.3704 µM	1.09
[2], 1.111 µM	1.05
[2], 3.333 µM	0.991
[2], 10 µM	0.947
[3], 0.00017 µM	1.088
[3], 0.00051 µM	1.122
[3], 0.00152 µM	1.12
[3], 0.00457 µM	1.12
[3], 0.01372 µM	1.11
[3], 0.04115 µM	1.11
[3], 0.1235 µM	1.11
[3], 0.3704 µM	1.1
[3], 1.111 µM	1.09
[3], 3.333 µM	1.1
[3], 10 µM	1.08
[4], 0.00017 µM	1.11
[4], 0.00051 µM	1.1
[4], 0.00152 µM	1.116
[4], 0.00457 µM	1.096
[4], 0.01372 µM	1.06
[4], 0.04115 µM	1.053
[4], 0.1235 µM	1.1
[4], 0.3704 µM	1.07
[4], 1.111 µM	1.028
[4], 3.333 µM	1.05
[4], 10 µM	0.998
[5], 0.00017 µM	1.06
[5], 0.00051 µM	1.072
[5], 0.00152 µM	1.06
[5], 0.00457 µM	1.04
[5], 0.01372 µM	1.05
[5], 0.04115 µM	1.07
[5], 0.1235 µM	1.04
[5], 0.3704 µM	1.032
[5], 1.111 µM	0.994
[5], 3.333 µM	0.971
[5], 10 µM	0.8874
[6], 0.00017 µM	1.07
[6], 0.00051 µM	1.12
[6], 0.00152 µM	1.12
[6], 0.00457 µM	1.09
[6], 0.01372 µM	1.14
[6], 0.04115 µM	1.086
[6], 0.1235 µM	1.13
[6], 0.3704 µM	1.05
[6], 1.111 µM	1.03
[6], 3.333 µM	0.976
[6], 10 µM	0.881
[7], 0.00017 µM	1.07
[7], 0.00051 µM	1.09
[7], 0.00152 µM	1.08
[7], 0.00457 µM	1.06
[7], 0.01372 µM	1.04
[7], 0.04115 µM	1.04
[7], 0.1235 µM	0.997
[7], 0.3704 µM	0.966
[7], 1.111 µM	0.923
[7], 3.333 µM	0.923
[7], 10 µM	0.889
[8], 0.00017 µM	1.19
[8], 0.00051 µM	1.19
[8], 0.00152 µM	1.23
[8], 0.00457 µM	1.23
[8], 0.01372 µM	1.18
[8], 0.04115 µM	1.18
[8], 0.1235 µM	1.19
[8], 0.3704 µM	1.16
[8], 1.111 µM	1.12
[8], 3.333 µM	1.05
[8], 10 µM	0.967
[9], 0.00017 µM	1.1
[9], 0.00051 µM	1.12
[9], 0.00152 µM	1.09
[9], 0.00457 µM	1.1
[9], 0.01372 µM	1.09
[9], 0.04115 µM	1.08
[9], 0.1235 µM	1.06
[9], 0.3704 µM	1.04
[9], 1.111 µM	1.08
[9], 3.333 µM	1.05
[9], 10 µM	1.013
[10], 0.00017 µM	1.08
[10], 0.00051 µM	1.06
[10], 0.00152 µM	1.087
[10], 0.00457 µM	1.08
[10], 0.01372 µM	1.05
[10], 0.04115 µM	1.07
[10], 0.1235 µM	1.04
[10], 0.3704 µM	1.026
[10], 1.111 µM	1
[10], 3.333 µM	0.963
[10], 10 µM	0.951
[11], 0.00017 µM	1
[11], 0.00051 µM	0.989
[11], 0.00152 µM	0.975
[11], 0.00457 µM	0.968
[11], 0.01372 µM	0.951
[11], 0.04115 µM	0.948
[11], 0.1235 µM	0.948
[11], 0.3704 µM	0.953
[11], 1.111 µM	0.941
[11], 3.333 µM	0.941
[11], 10 µM	0.93
[12], 0.00017 µM	1.07
[12], 0.00051 µM	1.11
[12], 0.00152 µM	1.07
[12], 0.00457 µM	1.08
[12], 0.01372 µM	1.07
[12], 0.04115 µM	1.04
[12], 0.1235 µM	1.057
[12], 0.3704 µM	1.06
[12], 1.111 µM	1.05
[12], 3.333 µM	1.058
[12], 10 µM	0.966

Cc1c2oc3c(C)ccc(C(=O)N[C@@H]4C(=O)N[C@H](C(C)C)C(=O)N5CCC[C@H]5C(=O)N(C)CC(=O)N(C)[C@@H](C(C)C)C(=O)O[C@@H]4C)c3nc-2c(C(=O)N[C@@H]2C(=O)N[C@H](C(C)C)C(=O)N3CCC[C@H]3C(=O)N(C)CC(=O)N(C)[C@@H](C(C)C)C(=O)O[C@@H]2C)c(N)c1=O [Dactinomycin]
Settings	relative viability
[1], 0.00017 µM	0.883
[1], 0.00051 µM	0.888
[1], 0.00152 µM	0.606
[1], 0.00457 µM	0.327
[1], 0.01372 µM	0.259
[1], 0.04115 µM	0.249
[1], 0.1235 µM	0.239
[1], 0.3704 µM	0.29
[1], 1.111 µM	0.292
[1], 3.333 µM	0.298
[1], 10 µM	0.28
[2], 0.00017 µM	1.02
[2], 0.00051 µM	1.04
[2], 0.00152 µM	0.9913
[2], 0.00457 µM	0.712
[2], 0.01372 µM	0.553
[2], 0.04115 µM	0.391
[2], 0.1235 µM	0.185
[2], 0.3704 µM	0.171
[2], 1.111 µM	0.137
[2], 3.333 µM	0.128
[2], 10 µM	0.129
[3], 0.00017 µM	1.06
[3], 0.00051 µM	1.07
[3], 0.00152 µM	1.08
[3], 0.00457 µM	1.04
[3], 0.01372 µM	0.63
[3], 0.04115 µM	0.24
[3], 0.1235 µM	0.0945
[3], 0.3704 µM	0.0744
[3], 1.111 µM	0.0665
[3], 3.333 µM	0.0513
[3], 10 µM	0.0582
[4], 0.00017 µM	1.01
[4], 0.00051 µM	0.994
[4], 0.00152 µM	0.94
[4], 0.00457 µM	0.733
[4], 0.01372 µM	0.457
[4], 0.04115 µM	0.303
[4], 0.1235 µM	0.151
[4], 0.3704 µM	0.158
[4], 1.111 µM	0.148
[4], 3.333 µM	0.15
[4], 10 µM	0.146
[5], 0.00017 µM	1
[5], 0.00051 µM	1.02
[5], 0.00152 µM	0.994
[5], 0.00457 µM	0.86
[5], 0.01372 µM	0.664
[5], 0.04115 µM	0.364
[5], 0.1235 µM	0.292
[5], 0.3704 µM	0.27
[5], 1.111 µM	0.287
[5], 3.333 µM	0.288
[5], 10 µM	0.3
[6], 0.00017 µM	1.02
[6], 0.00051 µM	0.99
[6], 0.00152 µM	0.641
[6], 0.00457 µM	0.393
[6], 0.01372 µM	0.277
[6], 0.04115 µM	0.234
[6], 0.1235 µM	0.193
[6], 0.3704 µM	0.201
[6], 1.111 µM	0.169
[6], 3.333 µM	0.161
[6], 10 µM	0.168
[7], 0.00017 µM	0.912
[7], 0.00051 µM	0.937
[7], 0.00152 µM	0.884
[7], 0.00457 µM	0.8961
[7], 0.01372 µM	0.711
[7], 0.04115 µM	0.128
[7], 0.1235 µM	0.166
[7], 0.3704 µM	0.119
[7], 1.111 µM	0.108
[7], 3.333 µM	0.113
[7], 10 µM	0.132
[8], 0.00017 µM	1.13
[8], 0.00051 µM	1.16
[8], 0.00152 µM	1.09
[8], 0.00457 µM	0.992
[8], 0.01372 µM	0.835
[8], 0.04115 µM	0.687
[8], 0.1235 µM	0.763
[8], 0.3704 µM	0.775
[8], 1.111 µM	0.795
[8], 3.333 µM	0.816
[8], 10 µM	0.766
[9], 0.00017 µM	0.96
[9], 0.00051 µM	0.975
[9], 0.00152 µM	0.992
[9], 0.00457 µM	0.943
[9], 0.01372 µM	0.765
[9], 0.04115 µM	0.442
[9], 0.1235 µM	0.171
[9], 0.3704 µM	0.218
[9], 1.111 µM	0.189
[9], 3.333 µM	0.187
[9], 10 µM	0.199
[10], 0.00017 µM	0.971
[10], 0.00051 µM	0.946
[10], 0.00152 µM	0.834
[10], 0.00457 µM	0.71
[10], 0.01372 µM	0.62
[10], 0.04115 µM	0.272
[10], 0.1235 µM	0.242
[10], 0.3704 µM	0.215
[10], 1.111 µM	0.183
[10], 3.333 µM	0.15
[10], 10 µM	0.1334
[11], 0.00017 µM	0.9129
[11], 0.00051 µM	0.835
[11], 0.00152 µM	0.354
[11], 0.00457 µM	0.321
[11], 0.01372 µM	0.265
[11], 0.04115 µM	0.0423
[11], 0.1235 µM	0.0397
[11], 0.3704 µM	0.0566
[11], 1.111 µM	0.0464
[11], 3.333 µM	0.0357
[11], 10 µM	0.0424
[12], 0.00017 µM	0.948
[12], 0.00051 µM	0.877
[12], 0.00152 µM	0.652
[12], 0.00457 µM	0.441
[12], 0.01372 µM	0.279
[12], 0.04115 µM	0.211
[12], 0.1235 µM	0.155
[12], 0.3704 µM	0.118
[12], 1.111 µM	0.087
[12], 3.333 µM	0.0667
[12], 10 µM	0.0642
